Data from the NIST ThermoML archive (doi:10.1021/acs.jced.5b00820).

Assay: xn = mol fraction of the nth substance listed
Conditions: 102.2 kPa, Liquid, Vibrating tube method

C[Si](C)(O[Si](C)(C)c1ccccc1)c1ccccc1 [1,3-diphenyltetramethyldisiloxane] + C[Si]1(C)O[Si](C)(C)O[Si](C)(C)O[Si](C)(C)O1
mass density [kg/m3]
Conditions	308.15 K	313.15 K	318.15 K	323.15 K	328.15 K
x1 = 0.05	940.79	935.08	929.44	923.79	918.1
x1 = 0.0999	942.6	937.01	931.46	925.91	920.32
x1 = 0.1503	944.43	938.95	933.49	928.04	922.57
x1 = 0.2005	946.19	940.8	935.45	930.1	924.72
x1 = 0.2507	947.88	942.59	937.33	932.06	926.77
x1 = 0.2963	949.39	944.19	939.02	933.84	928.63
x1 = 0.3509	951.16	946.05	940.97	935.88	930.78
x1 = 0.4001	952.67	947.66	942.65	937.65	932.62
x1 = 0.4471	954.04	949.1	944.16	939.26	934.29
x1 = 0.4968	955.6	950.74	945.91	941.08	936.23
x1 = 0.5512	957.17	952.39	947.64	942.9	938.15
x1 = 0.6003	958.51	953.82	949.15	944.46	939.79
x1 = 0.6502	959.83	955.22	950.62	946.01	941.41
x1 = 0.7001	961.15	956.6	952.09	947.56	943.03
x1 = 0.7497	962.4	957.92	953.48	949.04	944.59
x1 = 0.8	963.64	959.25	954.87	950.49	946.11
x1 = 0.85	964.8	960.48	956.18	951.88	947.58
x1 = 0.896	965.82	961.53	957.3	953.03	948.8
x1 = 0.9497	967	962.79	958.63	954.45	950.29
x1 = 1	968.05	963.92	959.8	955.69	951.58
